{"source": "patent US4769447A", "about": "“Gamma-Glutamyl-4-azoanilides” (Boehringer Mannheim GmbH, priority 1986, dated 1988)", "key": {"[1]": {"assay": "Absorption maxima (λmax., Δλmax.) and extinction coefficient of substrates and liberated coloured materials", "format": "physicochemical", "conditions": "for λmax. (coloured material): coloured material liberated from the substrate; for Δλmax. = λmax. (coloured material) - λmax. (substrate): difference of the absorption maxima", "source_text": "Thus, for example, the difference of the absorption maxima of the known substrate γ-glutamyl-3-carboxy-4-nitroanilide (λmax. 317 nm) and of the coloured material obtained therefrom, i.e. 3-carboxy-4-nitroaniline(λmax. 380 nm) is 63 nm. In contradistinction thereto, the compounds according to the present invention of general formula (I) display substantially greater differences between the absorption spectra of the substrate and of the coloured material liberated enzymatically therefrom. As a rule, this difference is from 80 to 110 nm.\nΔλmax. hereby means the difference between λmax. (coloured material)-λmax. (substrate)."}, "γ-GT [2]": {"test_system": "γ-GT", "assay": "Determination of the activity of γ-GT at 25° and 37° C. with S1 and L-Glupa C in human serum pools and control serum", "format": "biochemical", "conditions": "control serum PPU 516; 25° C.", "method": "(§1) 21.78 g. Glycylglycine were dissolved in about 900 ml. distilled water, the pH was adjusted to 7.9 with 2N aqueous sodium hydroxide solution, the amount of substrate calculated for a concentration of 1 mmole/liter was dissolved therein and the solution made up to 1000 ml. with distilled water. End concentration in the test:\n(§2) 2.0 ml. of the reagent described in (a) was pipetted into a cuvette, tempered to 25° C. and mixed with 0.2 ml. of sample. The extinction increase per minute was measured at an apropriate wavelength.\n(§3) One international unit (U) is the enzyme activity which converts 1 μmole of substrate per minute at 25° C. The activity of the γ-glutamyl transferase in U/liter in the sample is calculated according to the following equation: [formula] wherein ΔE/min is the extinction increase at an appropriate wavelength per minute, V is the batch volume in ml., v is the sample volume in ml., ε is the extinction coefficient in cm^2 μmol^-1 and d is the layer thickness of the cuvette in cm.\n(§4) The substrates used were L-Glupa C and S1."}, "γ-GT [3]": {"biological_target": "T1, γ-GT (Homo sapiens, UniProt P19440)", "T1 construct": "in three mixtures of human sera; from tissue; host or cells: human serum (three pools of different activity); also a control serum of unstated origin", "T1 sequence (P19440 1-380 limits assumed)": "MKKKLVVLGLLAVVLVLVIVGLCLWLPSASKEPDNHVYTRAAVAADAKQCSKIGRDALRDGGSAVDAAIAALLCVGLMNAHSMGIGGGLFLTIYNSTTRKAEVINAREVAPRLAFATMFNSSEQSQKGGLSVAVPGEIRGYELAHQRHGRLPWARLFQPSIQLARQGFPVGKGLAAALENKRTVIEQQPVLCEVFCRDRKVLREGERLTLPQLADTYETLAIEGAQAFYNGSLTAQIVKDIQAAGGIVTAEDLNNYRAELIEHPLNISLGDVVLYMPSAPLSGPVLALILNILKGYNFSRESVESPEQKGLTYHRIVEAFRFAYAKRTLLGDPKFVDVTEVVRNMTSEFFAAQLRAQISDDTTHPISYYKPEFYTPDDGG", "T1 sequence (P19440 381-569 limits assumed)": "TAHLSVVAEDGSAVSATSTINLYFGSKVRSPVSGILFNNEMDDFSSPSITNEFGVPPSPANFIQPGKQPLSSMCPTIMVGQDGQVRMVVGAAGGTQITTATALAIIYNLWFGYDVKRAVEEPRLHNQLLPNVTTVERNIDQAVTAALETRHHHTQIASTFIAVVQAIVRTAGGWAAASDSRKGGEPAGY", "assay": "Determination of the activity of γ-GT at 25° and 37° C. with S1 and L-Glupa C in human serum pools and control serum", "format": "biochemical", "conditions": "25° C.", "method": "as §1, §2, §3, §4"}, "γ-GT [4]": {"test_system": "γ-GT", "assay": "Determination of the activity of γ-GT at 25° and 37° C. with S1 and L-Glupa C in human serum pools and control serum", "format": "biochemical", "conditions": "control serum PPU 516"}, "γ-GT [5]": {"biological_target": "T1, γ-GT", "assay": "Determination of the activity of γ-GT at 25° and 37° C. with S1 and L-Glupa C in human serum pools and control serum", "format": "biochemical"}, "[6]": {"biological_target": "T2, γ-glutamyl transferase (γ-GT) (Homo sapiens, UniProt P19440)", "T2 construct": "host or cells: control serum", "T2 sequence (P19440 381-569 limits assumed)": "as above", "T2 sequence (P19440 1-380 limits assumed)": "as the sequence (P19440 1-380 limits assumed) above", "assay": "Determination of the activity of γ-glutamyl transferase in a control serum at 25° C. with different substrates", "format": "biochemical", "conditions": "for extinction coefficient: at the measurement wavelength: 546 nm (S1, S8, S9), 578 nm (S5), 405 nm (L-Glupa C); for γ-GT activity found in control serum (U/liter at 25° C.): same control serum, substrate 1 mmole/liter, glycylglycine 150 mmole/liter, pH 7.9", "method": "as §1, §2, §3"}, "[7]": {"conditions": "routine use; cited from earlier work"}}, "note": "Structures can show the parent of a compound that is named as a salt.", "data": [{"compound": "2-Amino-5-[[4-(2-cyano-4-nitrophenyl)-azo-3-(2-carboxyethoxy)-phenyl]-amino]-5-oxopentanoic acid diammonium salt [S2]", "values": [{"measurement": "λmax. (substrate)", "setting": "[1]", "result": 414, "unit": "nm"}]}, {"compound": "Nc1ccc([N+](=O)[O-])c(C(=O)O)c1", "note": "[3-carboxy-4-nitroaniline, reference compound]", "values": [{"measurement": "λmax. (coloured material)", "setting": "[1]", "result": 380, "unit": "nm"}]}, {"compound": "N[C@@H](CCC(=O)Nc1ccc([N+](=O)[O-])c(C(=O)O)c1)C(=O)O", "note": "[L-Glupa C, L-γ-glutamyl-3-carboxy-4-nitroanilide, reference compound]", "values": [{"measurement": "γ-GT activity, control serum PPU 516", "setting": "γ-GT [2]", "result": 139, "unit": "U/l."}, {"measurement": "γ-GT activity, human serum pool 1", "setting": "γ-GT [3]", "result": 35, "unit": "U/l."}, {"measurement": "γ-GT activity, human serum pool 2", "setting": "γ-GT [3]", "result": 63, "unit": "U/l."}, {"measurement": "γ-GT activity, human serum pool 3", "setting": "γ-GT [3]", "result": 190, "unit": "U/l."}, {"measurement": "γ-GT activity, control serum PPU 516", "setting": "γ-GT [4]", "result": 211, "unit": "U/l."}, {"measurement": "γ-GT activity, human serum pool 1", "setting": "γ-GT [5]", "result": 57, "unit": "U/l."}, {"measurement": "γ-GT activity, human serum pool 2", "setting": "γ-GT [5]", "result": 106, "unit": "U/l."}, {"measurement": "γ-GT activity, human serum pool 3", "setting": "γ-GT [5]", "result": 323, "unit": "U/l."}, {"measurement": "Δλmax. = λmax. (coloured material) - λmax. (substrate)", "setting": "[1]", "result": 63, "unit": "nm"}, {"measurement": "λmax. (substrate)", "setting": "[1]", "result": 317, "unit": "nm"}, {"measurement": "extinction coefficient", "setting": "[6]", "result": 9.5, "unit": "cm^2 μmol^-1"}, {"measurement": "γ-GT activity found in control serum (U/liter at 25° C.)", "setting": "[6]", "result": 128, "unit": "U/liter"}]}, {"compound": "N.N.N#Cc1cc([N+](=O)[O-])ccc1N=Nc1ccc(NC(=O)CCC(N)C(=O)O)cc1CCC(=O)O", "note": "(centres unmarked) [S1, 2-Amino-5-[[4-(2-cyano-4-nitrophenyl)-azo-3-(2-carboxyethyl)-phenyl]-amino]-5-oxopentanoic acid diammonium salt]", "values": [{"measurement": "γ-GT activity, control serum PPU 516", "setting": "γ-GT [2]", "result": 134, "unit": "U/l."}, {"measurement": "γ-GT activity, human serum pool 1", "setting": "γ-GT [3]", "result": 42, "unit": "U/l."}, {"measurement": "γ-GT activity, human serum pool 2", "setting": "γ-GT [3]", "result": 76, "unit": "U/l."}, {"measurement": "γ-GT activity, human serum pool 3", "setting": "γ-GT [3]", "result": 220, "unit": "U/l."}, {"measurement": "γ-GT activity, control serum PPU 516", "setting": "γ-GT [4]", "result": 268, "unit": "U/l."}, {"measurement": "γ-GT activity, human serum pool 1", "setting": "γ-GT [5]", "result": 96, "unit": "U/l."}, {"measurement": "γ-GT activity, human serum pool 2", "setting": "γ-GT [5]", "result": 176, "unit": "U/l."}, {"measurement": "γ-GT activity, human serum pool 3", "setting": "γ-GT [5]", "result": 490, "unit": "U/l."}, {"measurement": "Δλmax. = λmax. (coloured material) - λmax. (substrate)", "setting": "[1]", "result": 94, "unit": "nm"}, {"measurement": "λmax. (substrate)", "setting": "[1]", "result": 394, "unit": "nm"}, {"measurement": "extinction coefficient", "setting": "[6]", "result": 7.8, "unit": "cm^2 μmol^-1"}, {"measurement": "γ-GT activity found in control serum (U/liter at 25° C.)", "setting": "[6]", "result": 144, "unit": "U/liter"}]}, {"compound": "NC(CCC(=O)Nc1ccc(N=Nc2ccc([N+](=O)[O-])cc2)c(C(=O)O)c1)C(=O)O", "note": "(centres unmarked) [S3, 2-amino-5-[(3-carboxyl-4-(4-nitrophenyl)-azophenyl]-amino]-5-oxopentnoic acid diammonium salt]", "values": [{"measurement": "λmax. (substrate)", "setting": "[1]", "result": 314, "unit": "nm"}]}, {"compound": "N.N.NC(CCC(=O)Nc1ccc(N=Nc2cc(Cl)c([N+](=O)[O-])cc2Cl)c(OCC(=O)O)c1)C(=O)O", "note": "(centres unmarked) [S4, 2-Amino-5-[[4-(2,5-dichloro-4-nitrophenyl)-azo-3-(carboxymethoxy)-phenyl]-amino]-5-oxopentanoic acid diammonium salt]", "values": [{"measurement": "λmax. (substrate)", "setting": "[1]", "result": 402, "unit": "nm"}]}, {"compound": "Cc1c(C#N)sc(N=Nc2ccc(NC(=O)CCC(N)C(=O)O)cc2CCC(=O)O)c1C#N.N.N", "note": "(centres unmarked) [S5, 2-Amino-5-[[3-(2-carboxyethyl)-4-(2,4-dicyano-3-methyl-5-thienyl)-azophenyl]-amino]-5-oxopentanoic acid diammonium salt]", "values": [{"measurement": "Δλmax. = λmax. (coloured material) - λmax. (substrate)", "setting": "[1]", "result": 106, "unit": "nm"}, {"measurement": "λmax. (substrate)", "setting": "[1]", "result": 424, "unit": "nm"}, {"measurement": "extinction coefficient", "setting": "[6]", "result": 8.9, "unit": "cm^2 μmol^-1"}, {"measurement": "γ-GT activity found in control serum (U/liter at 25° C.)", "setting": "[6]", "result": 77, "unit": "U/liter"}]}, {"compound": "Cc1c(C#N)sc(N=Nc2ccc(NC(=O)CCC(N)C(=O)O)cc2OCC(=O)O)c1C#N.N.N", "note": "(centres unmarked) [S6, 2-Amino-5-[[3-carboxymethoxy-4-(2,4-dicyano-3-methyl-5-thienyl)-azophenyl]-amino]-5-oxopentanoic acid diammonium salt]", "values": [{"measurement": "λmax. (substrate)", "setting": "[1]", "result": 448, "unit": "nm"}]}, {"compound": "Cc1cc(NC(=O)CCC(N)C(=O)O)ccc1N=Nc1nc(C)c(C(=O)O)s1", "note": "(centres unmarked) [S7, 2-Amino-5-[[4-(5-carboxy-4-methyl-2-thiazolyl)-3-methylazophenyl]-amino]-5-oxopentanoic acid diammonium salt]", "values": [{"measurement": "λmax. (substrate)", "setting": "[1]", "result": 412, "unit": "nm"}]}, {"compound": "Cc1nc(N=Nc2ccc(NC(=O)CCC(N)C(=O)O)cc2CCC(=O)O)sc1C#N.N.N", "note": "(centres unmarked) [S8, 2-Amino-5-[[3-(2-carboxyethyl)-4-(5-cyano-4-methyl-2-thiazolyl)-azophenyl]-amino]-5-oxopentanoic acid diammonium salt]", "values": [{"measurement": "Δλmax. = λmax. (coloured material) - λmax. (substrate)", "setting": "[1]", "result": 100, "unit": "nm"}, {"measurement": "λmax. (substrate)", "setting": "[1]", "result": 420, "unit": "nm"}, {"measurement": "extinction coefficient", "setting": "[6]", "result": 25.2, "unit": "cm^2 μmol^-1"}, {"measurement": "γ-GT activity found in control serum (U/liter at 25° C.)", "setting": "[6]", "result": 101, "unit": "U/liter"}]}, {"compound": "N.N.NC(CCC(=O)Nc1ccc(N=Nc2nccs2)c(CCC(=O)O)c1)C(=O)O", "note": "(centres unmarked) [S9, 2-Amino-5-[[3-(2-carboxyethyl)-4-(2-thiazolyl)azophenyl]amino]-5-oxopentanoic acid diammonium salt]", "values": [{"measurement": "λmax. (substrate)", "setting": "[1]", "result": 394, "unit": "nm"}, {"measurement": "extinction coefficient", "setting": "[6]", "result": 2.8, "unit": "cm^2 μmol^-1"}, {"measurement": "γ-GT activity found in control serum (U/liter at 25° C.)", "setting": "[6]", "result": 160, "unit": "U/liter"}]}, {"compound": "C[n+]1ccsc1N=Nc1ccc(NC(=O)CCC(N)C(=O)[O-])cc1CCC(=O)O.N", "note": "(centres unmarked) [S10, 2-Amino-5-[[3-(2-carboxylatoethyl)-4-(3-methylthiazolium-2-yl)-azophenyl]-amino]-5-oxopentanoic acid ammonium salt]", "values": [{"measurement": "λmax. (coloured material)", "setting": "[1]", "result": 486, "unit": "nm"}, {"measurement": "ε (coloured material)", "setting": "[1]; printed after λmax. (coloured material)=486 nm", "result": 15.5, "unit": "cm^2 μmol^-1"}, {"measurement": "λmax. (substrate)", "setting": "[1]", "result": 402, "unit": "nm"}]}, {"compound": "N.N.NC(CCC(=O)Nc1ccc(N=Nc2snc3cc([N+](=O)[O-])ccc23)c(OCC(=O)O)c1)C(=O)O", "note": "(centres unmarked) [S11, 2-Amino-5-[[3-carboxymethoxy-4-(6-nitro-2,1-benzisothiazol-3-yl)-azophenyl]-amino]-5-oxopentanoic acid diammonium salt]", "values": [{"measurement": "Δλmax. = λmax. (coloured material) - λmax. (substrate)", "setting": "[1]", "result": 107, "unit": "nm"}, {"measurement": "λmax. (substrate)", "setting": "[1]", "result": 453, "unit": "nm"}]}, {"compound": "CCCCSc1nnc(N=Nc2ccc(NC(=O)CCC(N)C(=O)O)cc2OCC(=O)O)s1", "note": "(centres unmarked) [S12, 2-Amino-5-[[4-(2-butylthio-1,3,4-thiadiazol-5-yl)-3-carboxymethoxyazophenyl]-amino]-5-oxopentanoic acid diammonium salt]", "values": [{"measurement": "λmax. (substrate)", "setting": "[1]", "result": 424, "unit": "nm"}]}, {"compound": "CCOc1ccc2nc(N=Nc3ccc(NC(=O)CCC(N)C(=O)O)cc3OCC(=O)O)sc2c1.N.N", "note": "(centres unmarked) [S13, 2-Amino-5-[[3-carboxymethoxy-4-(6-ethoxy-2-benzothiazolyl)-azophenyl]-amino]-5-oxopentanoic acid diammonium salt]", "values": [{"measurement": "λmax. (substrate)", "setting": "[1]", "result": 449, "unit": "nm"}]}, {"compound": "NC(CCC(=O)Nc1ccc([N+](=O)[O-])cc1)C(=O)O", "note": "(centres unmarked) [γ-glutamyl-p-nitroanilide]", "values": [{"measurement": "solubility (known substrate)", "setting": "[7]", "result": "poor solubility"}, {"measurement": "stability (known substrate)", "setting": "[7]", "result": "instability"}]}]}
